≈ marks a conversion by molar mass, not a printed value.
What was measured:
Test in all cases: In vitro antibacterial evaluation: minimum inhibitory concentration (MIC), broth dilution method
Assay type in all cases: cell-based
[1] = system: Enterococcus sp.; settings: 18 hours at 35° C.
Outline: (§1)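 Values are minimum inhibitory concentrations, meaning the smallest antibiotic concentration that stops growth of the organism. They come from broth dilution in Muller-Hinton II […] per NCCLS guidance (M7-A2), using 5×10^5 CFU/mL and concentrations from 64 to 0.06 μg/mL.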

[2] = system: Escherichia coli; settings: 18 hours at 35° C.
Outline: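 Broth dilution per NCCLS M7-A2 in Muller-Hinton II […], inoculum 5×10^5 CFU/mL, antibiotic tested over 64-0.06 μg/mL. MIC is taken as the lowest concentration that inhibits growth. Panel includes recent clinical isolates resistant to methicillin, penicillin and/or vancomycin.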

[3] = system: Staphylococcus sp.
Outline: as §1

[4] = system: Streptococcus sp.; settings: 18 hours at 35° C.
Outline: as §1

[5] = broth dilution, inoculum 5×10^5 CFU/mL

MIC Enterococcus avium (GC 4558) ([1]; Enterococcus avium (GC 4558)): 32 µg/mL (≈ 20.7 µM) | MIC Enterococcus faecalis (ATCC 29212) ([1]; Enterococcus faecalis (ATCC 29212)): 32 µg/mL (≈ 20.7 µM) | MIC Enterococcus faecalis (GC 2242) ([1]; Enterococcus faecalis (GC 2242)): 32 µg/mL (≈ 20.7 µM) | MIC Enterococcus faecalis (GC 2691) ([1]; Enterococcus faecalis (GC 2691)): 32 µg/mL (≈ 20.7 µM) | MIC Enterococcus faecalis (GC 3059) ([1]; Enterococcus faecalis (GC 3059)): 32 µg/mL (≈ 20.7 µM) | MIC Enterococcus faecalis (GC 4552) ([1]; Enterococcus faecalis (GC 4552)): 32 µg/mL (≈ 20.7 µM) | MIC Enterococcus faecalis (GC 4553) ([1]; Enterococcus faecalis (GC 4553)): 16 µg/mL (≈ 10.4 µM) | MIC Enterococcus faecalis (GC 4554) ([1]; Enterococcus faecalis (GC 4554)): 32 µg/mL (≈ 20.7 µM) | MIC Enterococcus faecalis (GC 6189) ([1]; Enterococcus faecalis (GC 6189)): 32 µg/mL (≈ 20.7 µM) | MIC Enterococcus faecium (GC 2243) ([1]; Enterococcus faecium (GC 2243)): 16 µg/mL (≈ 10.4 µM) | MIC Enterococcus faecium (GC 4556) ([1]; Enterococcus faecium (GC 4556)): 32 µg/mL (≈ 20.7 µM) | MIC Enterococcus faecium (GC 4557) ([1]; Enterococcus faecium (GC 4557)): 32 µg/mL (≈ 20.7 µM) | MIC Enterococcus avium (GC 4558) [1, 5]: 32 µg/mL (≈ 20.7 µM) | MIC Enterococcus faecalis (ATCC 29212) [1, 5]: 32 µg/mL (≈ 20.7 µM) | MIC Enterococcus faecalis (GC 2242) [1, 5]: 32 µg/mL (≈ 20.7 µM) | MIC Enterococcus faecalis (GC 2691) [1, 5]: 32 µg/mL (≈ 20.7 µM) | MIC Enterococcus faecalis (GC 3059) [1, 5]: 32 µg/mL (≈ 20.7 µM) | MIC Enterococcus faecalis (GC 4552) [1, 5]: 32 µg/mL (≈ 20.7 µM) | MIC Enterococcus faecalis (GC 4553) [1, 5]: 16 µg/mL (≈ 10.4 µM) | MIC Enterococcus faecalis (GC 4554) [1, 5]: 32 µg/mL (≈ 20.7 µM) | MIC Enterococcus faecalis (GC 6189) [1, 5]: 32 µg/mL (≈ 20.7 µM) | MIC Enterococcus faecium (GC 2243) [1, 5]: 16 µg/mL (≈ 10.4 µM) | MIC Enterococcus faecium (GC 4556) [1, 5]: 32 µg/mL (≈ 20.7 µM) | MIC Enterococcus faecium (GC 4557) [1, 5]: 32 µg/mL (≈ 20.7 µM) | MIC Escherichia coli (ATCC 25922) ([2]; Escherichia coli (ATCC 25922)): >64 µg/mL | MIC Escherichia coli (GC 4559) ([2]; Escherichia coli (GC 4559)): >64 µg/mL | MIC Escherichia coli (GC 4560) ([2]; Escherichia coli (GC 4560)): 32 µg/mL (≈ 20.7 µM) | MIC Staphylococcus aureus (ATCC 29213) ([3]; strain ATCC 29213): 32 µg/mL (≈ 20.7 µM) | MIC Staphylococcus aureus (GC 1131) ([3]; strain GC 1131): 32 µg/mL (≈ 20.7 µM) | MIC Staphylococcus aureus (GC 3051) ([3]; strain GC 3051): 32 µg/mL (≈ 20.7 µM) | MIC Staphylococcus aureus (GC 3053) ([3]; strain GC 3053): 32 µg/mL (≈ 20.7 µM) | MIC Staphylococcus aureus (GC 4541) ([3]; strain GC 4541): 32 µg/mL (≈ 20.7 µM) | MIC Staphylococcus aureus (GC 4542) ([3]; strain GC 4542): 32 µg/mL (≈ 20.7 µM) | MIC Staphylococcus aureus-SMITH (GC 4543) ([3]; strain GC 4543): 32 µg/mL (≈ 20.7 µM) | MIC Staphylococcus aureus (GC 4544) ([3]; strain GC 4544): 32 µg/mL (≈ 20.7 µM) | MIC Staphylococcus aureus (GC 4545) ([3]; strain GC 4545): 32 µg/mL (≈ 20.7 µM) | MIC Coagulase Negative Staphylococcus (GC 4547) ([3]; strain GC 4547): 32 µg/mL (≈ 20.7 µM) | MIC Coagulase Negative Staphylococcus (GC 4548) ([3]; strain GC 4548): 16 µg/mL (≈ 10.4 µM) | MIC Coagulase Negative Staphylococcus (GC 4549) ([3]; strain GC 4549): 32 µg/mL (≈ 20.7 µM) | MIC Coagulase Negative Staphylococcus (GC 4551) ([3]; strain GC 4551): 32 µg/mL (≈ 20.7 µM) | MIC Coagulase Negative Staphylococcus (GC 6257) ([3]; strain GC 6257): 16 µg/mL (≈ 10.4 µM) | MIC Streptococcus agalactiae (GC 4564) ([4]; Streptococcus agalactiae (GC 4564)): 0.12 µg/mL (≈ 0.0777 µM) | MIC Streptococcus pneumoniae (ATCC 6301) ([4]; Streptococcus pneumoniae (ATCC 6301)): <0.06 µg/mL | MIC Streptococcus pneumoniae (GC 1894) ([4]; Streptococcus pneumoniae (GC 1894)): <0.06 µg/mL | MIC Streptococcus pneumoniae (GC 4565) ([4]; Streptococcus pneumoniae (GC 4565)): <0.06 µg/mL | MIC Streptococcus pyogenes (GC 4563) ([4]; Streptococcus pyogenes (GC 4563)): 0.25 µg/mL (≈ 0.162 µM) | MIC Streptococcus agalactiae (GC 4564) [4, 5]: 0.12 µg/mL (≈ 0.0777 µM) | MIC Streptococcus pneumoniae (ATCC 6301) [4, 5]: <0.06 µg/mL | MIC Streptococcus pneumoniae (GC 1894) [4, 5]: <0.06 µg/mL | MIC Streptococcus pneumoniae (GC 4565) [4, 5]: <0.06 µg/mL | MIC Streptococcus pyogenes (GC 4563) [4, 5]: 0.25 µg/mL (≈ 0.162 µM)
Structure (SMILES): CC(c1ccccc1)C1NC(=O)CNC(=O)C(CO)NC(=O)C(C(O)C2CNC(=N)N2C2OC(CO)C(O)C(O)C2O)NC(=O)C(C(O)C2CNC(=N)N2)NC(=O)C(Cc2ccc(OC3OC(CO)C(OC4OC5COC(c6cccc(Oc7cccc(C(F)(F)F)c7)c6)OC5C(O)C4O)C(O)C3O)cc2)NC1=O (stereo not shown) [Example 184]
MIC Staphylococcus haemolyticus (GC 4546) ([3]; strain GC 4546): 32 µg/mL (≈ 20.7 µM)

— patent publication US8247211B2, “Glycopeptide antibiotics” (American Cyanamid Company, priority 2001, dated 2012)
